# Laboratory results taken from PMC6099740, “Design, Synthesis and Biological Evaluation of 6,7-Disubstituted-4-phenoxyquinoline Derivatives Bearing Pyridazinone Moiety as c-Met Inhibitors” (Molecules : A Journal of Synthetic Chemistry and Natural …, 2018).
# Entries after “also recorded” stand apart in the source; their conditions may differ.
# Tests used:
# c-Met kinase [1] = target: T1, c-Met kinase (Homo sapiens, UniProt P08581); set-up: method as in PMID 28384549; details: previous research; cited from earlier work
# MCF-7 cells = assay: MTT cytotoxicity assay, MCF-7; format: cell-based; details: Homo sapiens, MCF7, 72 h
# Experimental: (§1) The results expressed as IC50 values were summarized in Table 1, and the values were the average of at least two independent experiments.
# (§2) The cancer cell lines were cultured in minimum essential medium (MEM) supplement with 10% fetal bovine serum (FBS). […] The test compounds at indicated final concentrations were added to the culture medium and the cell cultures were continued for 72 h. […] All of the compounds were tested two times in each of the cell lines. The results expressed as inhibition rates or IC50 (half-maximal inhibitory concentration) were the averages of two determinations and calculated by using the Bacus Laboratories Incorporated Slide Scanner (Bliss) software (the Bacus Laboratories Inc. Slide Scanner (BLISS) system, Lombard, IL, USA)..
# A549 cells = assay: MTT cytotoxicity assay, A549; format: cell-based; details: Homo sapiens, 72 h
# Experimental: as §1, §2
# c-Met kinase [2] = target: T1, c-Met kinase; assay: c-Met kinase inhibition assay (HTRF; mobility shift)
# Experimental: All kinase assays were performed in 96-well plates in a 50 µL reaction volume. The kinase buffer contains 50 mM HEPES, pH 7.5, 10 mM MgCl2, 0.0015% Brij-35 and 2 mM DTT. The stop buffer contains 100 mM HEPES, pH 7.5, 0.015% Brij-35, 0.2% Coating Reagent 3 and 50 mM EDTA. Dilute the compounds to 500 µM by 100% DMSO, then transfer 10 µL of compound to a new 96-well plate as the intermediate plate, add 90 µL kinase buffer to each well. Transfer 5 µL of each well of the intermediate plate to 384-well plates. The following amounts of enzyme and substrate were used per well: kinase base buffer, FAM-labeled peptide, ATP and enzyme solution. Wells containing the substrate, enzyme, DMSO without compound were used as DMSO control. Wells containing just the substrate without enzyme were used as low control. Incubate at room temperature for 10 min. Add 10 µL peptide solution to each well. […] At last collect data on Caliper program and convert conversion values to inhibition values. Percent inhibition = (max − conversion)/(max − min) × 100. ‘max’ stands for DMSO control; ‘min’ stands for low control [20].
# HepG2 cells [3] = assay: MTT cytotoxicity assay, HepG2; format: cell-based; details: Homo sapiens, 72 h
# Experimental: as §1
# (§3) The cancer cell lines were cultured in minimum essential medium (MEM) supplement with 10% fetal bovine serum (FBS). Approximately 4 × 10^3 cells, suspended in MEM medium, were plated onto each well of a 96-well plate and incubated in 5% CO2 at 37 °C for 24 h. The test compounds at indicated final concentrations were added to the culture medium and the cell cultures were continued for 72 h. Fresh MTT was added to each well at a terminal concentration of 5 μg/mL and incubated with cells at 37 °C for 4 h. The formazan crystals were dissolved in 100 μL DMSO each well, and the absorbency at 492 nm (for absorbance of MTT formazan) and 630 nm (for the reference wavelength) was measured with the ELISA reader. All of the compounds were tested two times in each of the cell lines. The results expressed as inhibition rates or IC50 (half-maximal inhibitory concentration) were the averages of two determinations and calculated by using the Bacus Laboratories Incorporated Slide Scanner (Bliss) software (the Bacus Laboratories Inc. Slide Scanner (BLISS) system, Lombard, IL, USA)..
# A549, HepG2, MCF-7 = assay: MTT cytotoxicity assay, range over the three cancer cell lines; format: cell-based; details: Homo sapiens; range over A549, HepG2 and MCF-7
# Experimental: as §1, §3
# HepG2 cells [4] = assay: Acridine orange (AO) single staining, nuclear morphology; format: cell-based, human; details: 0.01 μM, 12 h
# Experimental: Potential compound 53 was selected for validation and evaluation of inhibition of cell proliferation and induction of apoptosis in HepG2 cells. […] Moreover, from the results of the inverted fluorescence microscopy, it can be observed that the cells in the control group (Figure 3a) were full and the edge was clear, which was added without nothing.
# The cancer cell lines were cultured in minimum essential medium (MEM) supplement with 10% fetal bovine serum (FBS). Approximately 2 × 10^4 cells, suspended in MEM medium, were plated onto each well of a 24-well plate and incubated in 5% CO2 at 37 °C for 24 h. Then the medium was removed, and 1 mL drug-free medium and 1mL medium with the test compound 7c at indicated final concentrations were added to each well in control group and test group respectively and the cell cultures were continued for 12 h. While the medium was removed, AO-PBS buffer was added to each well at a terminal concentration of 10 µg/mL and stained in dark for 10 min. Each well was washed with PBS buffer three times and observed under a fluorescence microscope.
# Figure 3 The cell morphology of HepG2 cells of the control and test groups. (a) HepG2 cells treated without any compounds; (b) HepG2 cells were treated with 0.01 µM for 12 h; Changes of nuclear morphology were determined by AO staining.
# T1 sequence (P08581 25-1390): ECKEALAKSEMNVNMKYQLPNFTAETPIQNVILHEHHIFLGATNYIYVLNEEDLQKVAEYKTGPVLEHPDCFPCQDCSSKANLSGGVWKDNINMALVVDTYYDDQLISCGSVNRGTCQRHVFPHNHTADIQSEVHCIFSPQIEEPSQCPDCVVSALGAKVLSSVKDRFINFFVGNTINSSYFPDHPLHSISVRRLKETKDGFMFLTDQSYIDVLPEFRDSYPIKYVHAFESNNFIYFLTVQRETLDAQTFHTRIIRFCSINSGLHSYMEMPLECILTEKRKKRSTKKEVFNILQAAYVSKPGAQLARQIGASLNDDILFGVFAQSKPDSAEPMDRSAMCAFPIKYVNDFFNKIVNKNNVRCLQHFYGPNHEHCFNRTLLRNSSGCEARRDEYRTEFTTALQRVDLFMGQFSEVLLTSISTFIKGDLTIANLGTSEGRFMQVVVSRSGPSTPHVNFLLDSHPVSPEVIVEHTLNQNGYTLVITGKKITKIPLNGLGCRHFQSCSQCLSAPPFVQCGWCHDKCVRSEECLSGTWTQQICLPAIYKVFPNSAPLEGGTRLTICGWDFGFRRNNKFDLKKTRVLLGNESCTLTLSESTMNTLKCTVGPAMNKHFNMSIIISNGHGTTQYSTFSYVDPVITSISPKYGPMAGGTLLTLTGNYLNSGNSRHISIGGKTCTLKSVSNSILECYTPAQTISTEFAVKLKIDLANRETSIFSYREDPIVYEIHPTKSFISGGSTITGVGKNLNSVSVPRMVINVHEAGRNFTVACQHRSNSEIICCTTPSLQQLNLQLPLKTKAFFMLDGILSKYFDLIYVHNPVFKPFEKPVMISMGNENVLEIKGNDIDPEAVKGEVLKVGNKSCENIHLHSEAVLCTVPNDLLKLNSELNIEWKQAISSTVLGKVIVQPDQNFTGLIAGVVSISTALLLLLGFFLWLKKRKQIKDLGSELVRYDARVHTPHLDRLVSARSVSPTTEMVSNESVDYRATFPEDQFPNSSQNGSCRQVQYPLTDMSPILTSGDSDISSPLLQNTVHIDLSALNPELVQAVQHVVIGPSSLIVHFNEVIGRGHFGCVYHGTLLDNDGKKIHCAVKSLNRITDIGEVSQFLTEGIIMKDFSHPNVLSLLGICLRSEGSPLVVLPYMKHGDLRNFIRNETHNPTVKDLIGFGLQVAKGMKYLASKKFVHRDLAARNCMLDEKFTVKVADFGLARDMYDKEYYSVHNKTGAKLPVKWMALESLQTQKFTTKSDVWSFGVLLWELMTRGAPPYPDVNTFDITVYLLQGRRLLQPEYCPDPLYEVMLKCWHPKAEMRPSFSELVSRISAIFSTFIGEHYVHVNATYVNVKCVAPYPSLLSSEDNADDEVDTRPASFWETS
SMILES,IC50 (c-Met kinase [2]) [nM],melting point [°C],enzyme activity IC50 values (c-Met kinase [1]),IC50 (MCF-7 cells) [nM],IC50 (A549 cells) [nM],IC50 (HepG2 cells [3]) [nM],"IC50 (A549, HepG2, MCF-7) [nM]",Inhibition of proliferation and induction of apoptosis (AO staining) (HepG2 cells [4])
Cc1cc(=O)n(-c2ccc(F)cc2)nc1C(=O)Nc1ccc(Oc2ccnc3[nH]ccc23)c(F)c1 [Compound 7],–,–,in the nanomole level,–,–,–,–,–
"COc1cc2c(Oc3ccc(NC(=O)c4nn(-c5ccccc5)ccc4=O)cc3F)ccnc2cc1OCCCN1CCCCC1 [Compound 37, N-(3-Fluoro-4-((6-methoxy-7-(3-(piperidin-1-yl)propoxy)quinolin-4-yl)oxy)phenyl)-4-oxo-1-phenyl-1,4-dihydropyridazine-3-carboxamide]",4,152.3 to 153.1,–,30 ± 10,60 ± 10,180 ± 10,2 to 1030,–
"COc1ccc(-n2ccc(=O)c(C(=O)Nc3ccc(Oc4ccnc5cc(OCCCN6CCC(C)CC6)c(OC)cc45)c(F)c3)n2)cc1 [Compound 41, N-(3-Fluoro-4-((6-methoxy-7-(3-(4-methylpiperidin-1-yl)propoxy)quinolin-4-yl)oxy)phenyl)-1-(4-methoxyphenyl)-4-oxo-1,4-dihydropyridazine-3-carboxamide]",0.9,145.1 to 146.3,–,20 ± 10,20 ± 10,8 ± 1,2 to 1030,–
"COc1cc2c(Oc3ccc(NC(=O)c4nn(-c5ccc(F)c(Cl)c5)ccc4=O)cc3F)ccnc2cc1OCCCN1CCC(C)CC1 [Compound 42, 1-(3-Chloro-4-fluorophenyl)-N-(3-fluoro-4-((6-methoxy-7-(3-(4-methylpiperidin-1-yl)propoxy)quinolin-4-yl)oxy)phenyl)-4-oxo-1,4-dihydropyridazine-3-carboxamide]",1.2,112.5 to 113.7,–,7 ± 1,5 ± 1,1030 ± 10,2 to 1030,–
"COc1cc2c(Oc3ccc(NC(=O)c4nn(-c5ccc(Cl)c(C(F)(F)F)c5)ccc4=O)cc3F)ccnc2cc1OCCCN1CCC(C)CC1 [Compound 44, 1-(4-Chloro-3-(trifluoromethyl)phenyl)-N-(3-fluoro-4-((6-methoxy-7-(3-(4-methylpiperidin-1-yl)propoxy)quinolin-4-yl)oxy)phenyl)-4-oxo-1,4-dihydropyridazine-3-carboxamide]",19,137.7 to 138.6,–,5960 ± 70,150 ± 30,650 ± 50,–,–
"COc1cc2c(Oc3ccc(NC(=O)c4nn(-c5ccc(Br)cc5)ccc4=O)cc3F)ccnc2cc1OCCCN1CCN(C)CC1 [Compound 48, 1-(4-Bromophenyl)-N-(3-fluoro-4-((6-methoxy-7-(3-(4-methylpiperazin-1-yl)propoxy)quinolin-4-yl)oxy)phenyl)-4-oxo-1,4-dihydropyridazine-3-carboxamide]",> 500,159.7 to 161.2,–,> 50000,> 50000,> 50000,–,–
"COc1cc2c(Oc3ccc(NC(=O)c4nn(-c5ccc(Cl)c(C(F)(F)F)c5)ccc4=O)cc3F)ccnc2cc1OCCCN1CCN(C)CC1 [Compound 52, 1-(4-Chloro-3-(trifluoromethyl)phenyl)-N-(3-fluoro-4-((6-methoxy-7-(3-(4-methylpiperazin-1-yl)propoxy)quinolin-4-yl)oxy)phenyl)-4-oxo-1,4-dihydropyridazine-3-carboxamide]",0.8,211.7 to 212.6,–,150 ± 20,40 ± 10,330 ± 30,2 to 1030,–
"COc1cc2c(Oc3ccc(NC(=O)c4nn(-c5ccccc5)ccc4=O)cc3F)ccnc2cc1OCCCN1CCN(C)CC1 [Compound 53, N-(3-Fluoro-4-((6-methoxy-7-(3-(4-methylpiperazin-1-yl)propoxy)quinolin-4-yl)oxy)phenyl)-4-oxo-1-phenyl-1,4-dihydropyridazine-3-carboxamide]",0.6,–,–,6 ± 1,3 ± 1,490 ± 30,2 to 1030,significantly inhibited HepG2 cells proliferation and induced apoptosis; also recorded: could induce remarkable apoptosis of HepG2 cells

# Second part, led by results:
IC50 (c-Met kinase [2]) [nM],melting point [°C],SMILES,enzyme activity IC50 values (c-Met kinase [1]),IC50 (MCF-7 cells) [nM],IC50 (A549 cells) [nM],IC50 (HepG2 cells [3]) [nM],"IC50 (A549, HepG2, MCF-7) [nM]",Inhibition of proliferation and induction of apoptosis (AO staining) (HepG2 cells [4])
> 500,210.1 to 211.4,"COc1cc2c(Oc3ccc(NC(=O)c4nn(-c5ccc(F)cc5)ccc4=O)cc3F)ccnc2cc1OCCCN1CCC(C)CC1 [Compound 38, N-(3-Fluoro-4-((6-methoxy-7-(3-(4-methylpiperidin-1-yl)propoxy)quinolin-4-yl)oxy)phenyl)-1-(4-fluorophenyl)-4-oxo-1,4-dihydropyridazine-3-carboxamide]",–,22500 ± 1350,28900 ± 1460,47200 ± 1670,–,–
169,220.6 to 222.1,"COc1cc2c(Oc3ccc(NC(=O)c4nn(-c5ccc(Cl)cc5)ccc4=O)cc3F)ccnc2cc1OCCCN1CCC(C)CC1 [Compound 39, 1-(4-Chlorophenyl)-N-(3-fluoro-4-((6-methoxy-7-(3-(4-methylpiperidin-1-yl)propoxy)quinolin-4-yl)oxy)phenyl)-4-oxo-1,4-dihydropyridazine-3-carboxamide]",–,14100 ± 1150,12400 ± 1090,7810 ± 890,–,–
345,220.7 to 221.4,"COc1cc2c(Oc3ccc(NC(=O)c4nn(-c5ccc(Br)cc5)ccc4=O)cc3F)ccnc2cc1OCCCN1CCC(C)CC1 [Compound 40, 1-(4-Bromophenyl)-N-(3-fluoro-4-((6-methoxy-7-(3-(4-methylpiperidin-1-yl)propoxy)quinolin-4-yl)oxy)phenyl)-4-oxo-1,4-dihydropyridazine-3-carboxamide]",–,9740 ± 990,13500 ± 1130,8840 ± 950,–,–
2,115.8 to 117.3,"COc1cc2c(Oc3ccc(NC(=O)c4nn(-c5ccc(Br)cc5F)ccc4=O)cc3F)ccnc2cc1OCCCN1CCC(C)CC1 [Compound 43, 1-(4-Bromo-2-fluorophenyl)-N-(3-fluoro-4-((6-methoxy-7-(3-(4-methylpiperidin-1-yl)propoxy)quinolin-4-yl)oxy)phenyl)-4-oxo-1,4-dihydropyridazine-3-carboxamide]",–,5 ± 1,30 ± 10,3 ± 1,2 to 1030,–
187,148.5 to 150.1,"COc1cc2c(Oc3ccc(NC(=O)c4nn(-c5ccccc5)ccc4=O)cc3F)ccnc2cc1OCCCN1CCC(C)CC1 [Compound 45, N-(3-Fluoro-4-((6-methoxy-7-(3-(4-methylpiperidin-1-yl)propoxy)quinolin-4-yl)oxy)phenyl)-4-oxo-1-phenyl-1,4-dihydropyridazine-3-carboxamide]",–,2010 ± 300,2950 ± 470,4660 ± 670,–,–
145,163.5 to 165.3,"COc1cc2c(Oc3ccc(NC(=O)c4nn(-c5ccc(Cl)cc5)ccc4=O)cc3F)ccnc2cc1OCCCN1CCN(C)CC1 [Compound 47, 1-(4-Chlorophenyl)-N-(3-fluoro-4-((6-methoxy-7-(3-(4-methylpiperazin-1-yl)propoxy)quinolin-4-yl)oxy)phenyl)-4-oxo-1,4-dihydropyridazine-3-carboxamide]",–,21100 ± 1320,20000 ± 1300,14200 ± 1150,–,–
78,167.5 to 169.1,"COc1ccc(-n2ccc(=O)c(C(=O)Nc3ccc(Oc4ccnc5cc(OCCCN6CCN(C)CC6)c(OC)cc45)c(F)c3)n2)cc1 [Compound 49, 1-(4-((l1-Oxidanyl)-l5-methyl)phenyl)-N-(3-fluoro-4-((6-methoxy-7-(3-(4-methylpiperazin-1-yl)propoxy)quinolin-4-yl)oxy)phenyl)-4-oxo-1,4-dihydropyridazine-3-carboxamide]",–,8120 ± 910,9120 ± 960,3680 ± 570,–,–
